Marks after values point to notes of the source that are not given here.
Tested on: patients with stable HFrEF
Test: Multiple-ascending dose trial, TTE left atrial parameters
Assay type: in vivo, human
Excerpt: This example describes a study to establish the effect on left atrial dimensions and function of single- and multiple-ascending oral doses of Compound I in ambulatory patients with stable heart failure with reduced ejection fraction (HFrEF). Key eligibility criteria included stable HFrEF of ischemic or nonischemic origin, treated with guideline-directed medical therapy (EF initial requirement during Screening was 20 to 45%, and was later changed by amendment to 15 to 35%). Subjects with active ischemia or severe or valvular heart disease were excluded.
The clinical trial enrolled patients who were 18-80 years of age with a clinical diagnosis of stable chronic heart failure with an LV ejection fraction (LVEF) on echocardiography of 45% or less (subsequently amended to ≤35%), treated with guideline-directed medical therapy, and with good quality echocardiogram images. […] Patients with current or recent AF were also excluded. Detailed inclusion and exclusion criteria are shown below.
This was a randomized, parallel-group, DB, placebo-controlled, adaptive design, sequential ascending (oral) multiple-dose study in stable patients with heart failure. Four MAD Cohorts (A, B, C, D) were enrolled (FIG. 7B). An SRC reviewed results from each cohort and determined the dose and confirmed initial sample size for the subsequent cohort. Additionally, the first 3 patients in each cohort had LVEF>25%; the SRC reviewed preliminary safety data from these patients and decided whether to open cohort enrollment to patients with LVEF<25%.
In Cohort A, Compound I 75 mg twice daily (BID) or matching placebo was administered after a 2-hour fast, and food was not allowed for the following 2 hours. In Cohorts B, C and D, patients received Compound I 50, 75 and 100 mg BID, respectively, with food (Table 5).
Patients were admitted to a clinical research unit for 11 days and underwent 3 consecutive study periods: (1) an initial single-blind placebo run-in period of 2 days (Days 1-2); (2) a randomized (1:3) double-blind treatment period in which patients received 7 days of placebo or Compound I, administered orally twice daily (from Day 3 until Day 9); (3) a follow-up period with patients discharged from the unit on D11, and a final follow-up clinic visit conducted on Day 16. During the 11-day confinement, patients were under continuous supervision.
During the study, multiple evaluations were performed that included: serial TTE assessments (11-14 TTEs per patient on Days 1, 2, 3, 4, 7, 9, 10 and 11); PK sampling (PK sample collected concomitantly with every post-randomization echocardiogram); ECGs (on Days 2, 3, 4, 7, 9, 10, 11 and 16); troponin (collected concomitantly with every post-randomization ECG); and safety laboratory assessments. Confined patients underwent continuous telemetry. Holter monitoring was performed in all patients at baseline (Days 1-2) and at the end of double-blind treatment (Days 7-9). Vital signs were collected daily.

[1] = plasma concentrations ≥2000 ng/mL, 'up to', p<0.01

Cn1cc(S(=O)(=O)[C@@](C)(F)C2CCN(C(=O)Nc3ccon3)CC2)c(C(F)F)n1 [Compound I, (R)-4-(1-((3-(difluoromethyl)-1-methyl-1H-pyrazol-4-yl)sulfonyl)-1-fluoroethyl)-N-(isoxazol-3-yl)piperidine-1-carboxamide]
safety and tolerability of drug dosages and exposures tested (current studies): safe and are well tolerated
LAminVi, mean change from baseline (placebo-corrected) (plasma concentration 2000-<3500 ng/mL (medium), SE 0.6, p<0.01): −2.1 mL/m^2
LAEF, mean change from baseline (placebo-corrected) (plasma concentration 2000-<3500 ng/mL (n = 26, medium), SE 1.3, p<0.05): 3.3%
LAmaxVi, mean change from baseline (placebo-corrected) (plasma concentration 2000-<3500 ng/mL, SE 0.7): −1.1 mL/m^2
MR jet area/LA area ratio, mean change from baseline (placebo-corrected) (plasma concentration 2000-<3500 ng/mL, SE 1.3): −0.6%
LAEF, mean change from baseline (placebo-corrected) (plasma concentration <2000 ng/mL (n = 30), LS mean difference, SE 1.2, baseline 41 (8)): 2.1%
LAminVi, mean change from baseline (placebo-corrected) (plasma concentration <2000 ng/mL, SE 0.6, baseline 17 (7), p<0.01): −1.8** mL/m^2
LAmaxVi, mean change from baseline (placebo-corrected) (plasma concentration <2000 ng/mL, SE 0.6, baseline 28 (9)): −1.2 mL/m^2
MR jet area/LA area ratio, mean change from baseline (placebo-corrected) (plasma concentration <2000 ng/mL, SE 1.2, baseline 8.7 (10.5)): 0.3%
LAFI, mean change from baseline (placebo-corrected) (plasma concentration <2000 ng/mL, SE 1.5, baseline 26 (13)): 2.6
LAminVi, mean change from baseline (placebo-corrected) (plasma concentration ≥3500 ng/mL (high), SE 0.7, p<0.01): −2.4 mL/m^2
LAEF, mean change from baseline (placebo-corrected) (plasma concentration ≥3500 ng/mL (n = 13, high), SE 1.6, p<0.05): 3.6%
LAmaxVi, mean change from baseline (placebo-corrected) (plasma concentration ≥3500 ng/mL, SE 0.8): −1.3 mL/m^2
MR jet area/LA area ratio, mean change from baseline (placebo-corrected) (plasma concentration ≥3500 ng/mL, SE 1.6, p<0.05): −4.2* %
decrease in LA minimal volume index compared with placebo [1]: up to −2.4 mL/m2
increase in LA function index compared with placebo [1]: up to 6.1
